Measured values reported in ChEMBL document CHEMBL3414484, “Novel imidazole derivatives as heme oxygenase-1 (HO-1) and heme oxygenase-2 (HO-2) inhibitors and their cytotoxic activity in human-derived cancer cell lines” (Eur J Med Chem, 2015).
pIC50: −log10 of the molar value.

Tests used:
[1] = biological target: T1, Heme oxygenase 2 (Rattus norvegicus, UniProt P23711); assay: Inhibition of HO2 in Sprague-Dawley rat brain microsomal fraction assessed as reduction in bilirubin formation incubated for 60 mins by double beam spectrophotometry
T1 sequence (P23711 whole entry): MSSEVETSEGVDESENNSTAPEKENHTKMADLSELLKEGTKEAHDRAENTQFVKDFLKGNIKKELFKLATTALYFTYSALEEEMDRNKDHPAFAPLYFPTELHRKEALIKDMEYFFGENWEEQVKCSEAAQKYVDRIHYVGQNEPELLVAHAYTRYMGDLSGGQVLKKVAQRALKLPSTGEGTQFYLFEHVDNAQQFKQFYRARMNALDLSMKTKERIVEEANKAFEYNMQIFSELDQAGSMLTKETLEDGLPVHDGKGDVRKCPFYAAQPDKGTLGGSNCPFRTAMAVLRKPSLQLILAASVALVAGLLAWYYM

[2] = tested on: MDCK; assay: Cytotoxicity against MDCK cells incubated for 72 hrs by sulforhodamine B assay; type: cell-based; conditions: Canis lupus familiaris
[3] = tested on: LNCaP; assay: Selectivity index, ratio of IC50 for MDCK cells to IC50 human LNCAP cells
[4] = Cytotoxicity against human PC3 cells incubated for 72 hrs by sulforhodamine B assay; type: functional, cell-based; conditions: PC-3, 72 h
[5] = tested on: DU-145; assay: Cytotoxicity against human DU145 cells incubated for 72 hrs by sulforhodamine B assay; type: functional, cell-based; conditions: DU-145, 72 h
[6] = tested on: MDCK; assay: Selectivity index, ratio of IC50 for MDCK cells to IC50 human MCF7 cells
[7] = tested on: DU-145; assay: Selectivity index, ratio of IC50 for MDCK cells to IC50 human DU145 cells
[8] = tested on: MCF7; assay: Cytotoxicity against human MCF7 cells incubated for 72 hrs by sulforhodamine B assay; type: functional, cell-based; conditions: MCF7, 72 h
[9] = tested on: MDA-MB-231; assay: Cytotoxicity against human MDA-MB-231 cells incubated for 72 hrs by sulforhodamine B assay; type: functional, cell-based; conditions: MDA-MB-231, 72 h
[10] = tested on: MDCK; assay: Selectivity index, ratio of IC50 for MDCK cells to IC50 human MDA-MB-231 cells
[11] = tested on: MDCK; assay: Selectivity index, ratio of IC50 for MDCK cells to IC50 human PC3 cells
[12] = tested on: LNCaP; assay: Cytotoxicity against human LNCAP cells incubated for 72 hrs by sulforhodamine B assay; type: functional, cell-based
[13] = biological target: T2, Heme oxygenase 1 (Rattus norvegicus, UniProt P06762); assay: Inhibition of HO1 in Sprague-Dawley rat spleen microsomal fraction assessed as reduction in bilirubin formation incubated for 60 mins by double beam spectrophotometry; type: microsomes
T2 sequence (P06762 whole entry): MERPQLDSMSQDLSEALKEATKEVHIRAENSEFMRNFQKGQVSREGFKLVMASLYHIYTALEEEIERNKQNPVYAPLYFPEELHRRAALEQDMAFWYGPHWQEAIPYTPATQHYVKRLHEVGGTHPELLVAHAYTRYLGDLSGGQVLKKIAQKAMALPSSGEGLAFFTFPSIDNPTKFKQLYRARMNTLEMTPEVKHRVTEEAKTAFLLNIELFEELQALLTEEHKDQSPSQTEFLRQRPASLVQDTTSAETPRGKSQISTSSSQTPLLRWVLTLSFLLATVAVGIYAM

`Brc1cccc(OCCCCn2cncn2)c1` showed a pIC50 [1] of 4.95.

In the case of `O=[N+]([O-])c1ccc(OCCCn2cncn2)cc1`, the pIC50 [1] was 4.35.

In the case of `c1ccc(OCCCn2cncn2)cc1`, the pIC50 [1] was < 4.00.

`O=[N+]([O-])c1ccc(OCCCn2ccnc2)cc1` showed a pIC50 [1] of 4.11.

Compound `O=[N+]([O-])c1ccc(OCCCCn2cncn2)cc1` has a pIC50 [1] of 4.38.

`Brc1cccc(OCCCn2cncn2)c1` showed a pIC50 [1] of 4.47.

In the case of `Ic1ccc(OCCCn2ccnc2)cc1`, the pIC50 [1] was 4.44.

In the case of `Ic1ccc(OCCCCn2ccnc2)cc1`, the pIC50 [2] was 3.99, the “Ratio IC50” value [3] was 2 and the pIC50 [4] was 4.08. For the same compound, the pIC50 [5] was 4.26, the “Ratio IC50” value [6] was 2 and the “Ratio IC50” value [7] was 2. For the same compound, the pIC50 [8] was 4.56, the pIC50 [9] was 4.26 and the “Ratio IC50” value [10] was 2. For the same compound, the “Ratio IC50” value [11] was 2 and the pIC50 [12] was 4.77.

For `Brc1cccc(OCCCCCn2ccnc2)c1`, the pIC50 [13] was 4.37 and the pIC50 [1] was 6.05.

`Brc1cccc(OCCCCCCn2ccnc2)c1` gave a pIC50 [13] of 4.47 and a pIC50 [1] of 4.39.

For `Ic1ccc(OCCCCCn2ccnc2)cc1`, the pIC50 [2] was 4.26, the “Ratio IC50” value [3] was 2 and the pIC50 [4] was 4.56. The pIC50 [5] was 4.56, the “Ratio IC50” value [6] was 2 and the “Ratio IC50” value [7] was 2. The pIC50 [8] was 4.96, the pIC50 [13] was 4.36 and the pIC50 [9] was 4.56. The “Ratio IC50” value [10] was 2, the “Ratio IC50” value [11] was 2 and the pIC50 [1] was 6.05. The pIC50 [12] was 4.56.

In the case of `Ic1ccc(OCCCCCCn2ccnc2)cc1`, the pIC50 [13] was 4.38 and the pIC50 [1] was < 4.00.

Work on `c1ccc2oc(SCCCn3ccnc3)nc2c1` yielded a pIC50 [13] of 4.77 and a pIC50 [1] of 4.31.

With `c1ccc2oc(SCCCCn3ccnc3)nc2c1` the pIC50 [13] was 4.51 and the pIC50 [1] was 4.13.

For `c1ccc2sc(SCCCn3ccnc3)nc2c1`, the pIC50 [2] was 4.08, the “Ratio IC50” value [3] was 2 and the pIC50 [4] was 4.08. For the same compound, the pIC50 [5] was 4.26, the “Ratio IC50” value [6] was 2 and the “Ratio IC50” value [7] was 2. The pIC50 [8] was 4.56, the pIC50 [13] was 6.05 and the pIC50 [9] was 4.26. For the same compound, the “Ratio IC50” value [10] was 2, the “Ratio IC50” value [11] was 2 and the pIC50 [1] was 4.90. The pIC50 [12] was 4.26.

With `c1ccc2sc(SCCCCn3ccnc3)nc2c1` the pIC50 [2] was 4.23, the “Ratio IC50” value [3] was 2 and the pIC50 [4] was 4.08. For the same compound, the pIC50 [5] was 4.08, the “Ratio IC50” value [6] was 2 and the “Ratio IC50” value [7] was 2. It also gave a pIC50 [8] of 4.56, a pIC50 [13] of 6.00 and a pIC50 [9] of 4.26. The “Ratio IC50” value [10] was 2, the “Ratio IC50” value [11] was 2 and the pIC50 [1] was 6.10. For the same compound, the pIC50 [12] was 4.26.

For `c1ccc2sc(SCCCCCn3ccnc3)nc2c1`, the pIC50 [13] was 4.40 and the pIC50 [1] was 4.95.

With `Clc1ccc2sc(SCCCn3ccnc3)nc2c1` the pIC50 [13] was 4.74 and the pIC50 [1] was 6.05.

With `Clc1ccc2sc(SCCCCn3ccnc3)nc2c1` the pIC50 [13] was < 4.00 and the pIC50 [1] was 6.05.

`Clc1ccc2sc(SCCCCCn3ccnc3)nc2c1` showed a pIC50 [13] of 4.44 and a pIC50 [1] of 6.05.

For `O=c1oc2ccccc2n1CCCCn1ccnc1`, the pIC50 [13] was 4.75 and the pIC50 [1] was 4.45.

In the case of `O=c1sc2ccccc2n1CCCn1ccnc1`, the pIC50 [13] was 4.78 and the pIC50 [1] was 4.54.

With `Brc1cccc(OCCCCCn2cncn2)c1` the pIC50 [13] was 4.70 and the pIC50 [1] was 6.10.

For `Brc1cccc(OCCCCn2ccnc2)c1`, the pIC50 [2] was 4.08, the “Ratio IC50” value [3] was 2 and the pIC50 [4] was 4.26. For the same compound, the pIC50 [5] was 4.33, the “Ratio IC50” value [6] was 2 and the “Ratio IC50” value [7] was 2. The pIC50 [8] was 4.56, the pIC50 [9] was 4.56 and the “Ratio IC50” value [10] was 2. The “Ratio IC50” value [11] was 2 and the pIC50 [12] was 4.56.
